Results as given in paper PMC2928223 (Journal of molecular biology, 2009).

Target: T1, CgFMNAT (Nakaseomyces glabratus, UniProt Q6FNA9)
T1 sequence (Q6FNA9 1-304): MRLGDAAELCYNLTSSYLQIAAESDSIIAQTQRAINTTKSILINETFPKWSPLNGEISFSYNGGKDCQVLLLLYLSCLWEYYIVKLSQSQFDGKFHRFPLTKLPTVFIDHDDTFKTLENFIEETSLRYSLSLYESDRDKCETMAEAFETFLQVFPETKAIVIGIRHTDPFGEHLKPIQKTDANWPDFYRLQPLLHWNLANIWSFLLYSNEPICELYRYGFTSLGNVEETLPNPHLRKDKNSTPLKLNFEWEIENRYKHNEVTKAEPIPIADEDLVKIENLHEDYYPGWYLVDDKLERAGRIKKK

Question: `O=P(O)(O)OP(=O)(O)O` [pyrophosphate] was tested. Which “X-ray crystal structure of product ternary complex (1.35 Å)” value did it give?
Answer: the densities for both products FAD and pyrophosphate (PPi) are well defined
